In patent publication US20210255193A1, “LYSINE REACTIVE PROBES AND USES THEREOF” (The Scripps Research Institute, priority 2017, published 2021):

Columns and labels:
Assay in all cases: competitive isoTOP-ABPP
Format in all cases: binding
[1] = molecular target: T1, PFKL 6-phosphofructokinase, liver type (Homo sapiens, UniProt P17858); settings: 50 uM, in vitro; for R value (DMSO/fragment) for probe 1 labeling / isoTOP-ABPP reactivity ratio at lysine P17858_K315 / isoTOP-ABPP reactivity ratio at lysine P17858_K677 / isoTOP-ABPP reactivity ratio at lysine P17858_K715: 231 sol
T1 construct: isoTOP-ABPP experiments performed in cell lysates (in vitro); endogenous in cells; host or cells: soluble proteome of human cancer cell lines (MDA-MB-231; Ramos and Jurkat also prepared)
T1 sequence (P17858 1-780): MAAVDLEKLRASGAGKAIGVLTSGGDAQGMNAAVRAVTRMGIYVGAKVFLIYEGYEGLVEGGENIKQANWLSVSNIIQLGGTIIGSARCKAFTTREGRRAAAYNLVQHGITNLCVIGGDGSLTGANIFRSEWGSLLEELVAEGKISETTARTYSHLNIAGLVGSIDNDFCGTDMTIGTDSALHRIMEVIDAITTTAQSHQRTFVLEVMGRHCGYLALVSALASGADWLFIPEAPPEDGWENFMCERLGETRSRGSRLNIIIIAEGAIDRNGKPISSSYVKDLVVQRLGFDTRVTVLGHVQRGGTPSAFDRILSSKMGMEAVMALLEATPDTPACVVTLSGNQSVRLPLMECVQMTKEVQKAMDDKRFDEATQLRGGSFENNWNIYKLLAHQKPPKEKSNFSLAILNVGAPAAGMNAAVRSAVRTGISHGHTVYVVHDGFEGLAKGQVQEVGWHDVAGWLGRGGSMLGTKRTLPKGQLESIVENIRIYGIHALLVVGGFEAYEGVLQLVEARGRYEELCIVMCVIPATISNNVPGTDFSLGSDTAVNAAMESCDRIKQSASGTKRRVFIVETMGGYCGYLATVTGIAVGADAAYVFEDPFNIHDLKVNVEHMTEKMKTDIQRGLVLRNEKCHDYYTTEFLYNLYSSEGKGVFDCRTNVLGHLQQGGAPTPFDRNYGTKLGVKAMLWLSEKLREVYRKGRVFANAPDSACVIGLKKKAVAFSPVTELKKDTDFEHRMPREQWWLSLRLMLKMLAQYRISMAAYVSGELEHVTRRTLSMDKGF
Summary of the method: (§1)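 Cell lysate (0.5 ml) was pre-treated with fragment, 50 μM for activated esters or 100 μM for guanidinylating agents, versus DMSO, then labeled 1 h at ambient temperature with 0.1 mM STP-alkyne. Light/heavy TEV tags attached by CuAAC; R = DMSO/compound MS1 peak-area ratio, median per lysine.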

EEF2 Elongation factor 2 = molecular target: T2, EEF2 Elongation factor 2 (Homo sapiens, UniProt P13639); settings: 50 uM, in vitro; for R value (DMSO/fragment) for probe 1 labeling / isoTOP-ABPP reactivity ratio at lysine P13639_K235 / isoTOP-ABPP reactivity ratio at lysine P13639_K318: 231 sol
T2 construct: isoTOP-ABPP experiments performed in cell lysates (in vitro); endogenous in cells; host or cells: soluble proteome of human cancer cell lines (MDA-MB-231; Ramos and Jurkat also prepared)
Summary of the method: as §1

[2] = molecular target: T3, MAP2K3 Dual specificity mitogen-activated protein kinase (Homo sapiens, UniProt P46734); settings: 50 uM, in vitro; for R value (DMSO/fragment) for probe 1 labeling: P46734_K93; for R value (DMSO/fragment) for probe 1 labeling / isoTOP-ABPP reactivity ratio at lysine P46734_K93: 231 sol
T3 construct: isoTOP-ABPP experiments performed in cell lysates (in vitro); endogenous in cells; host or cells: soluble proteome of human cancer cell lines (MDA-MB-231; Ramos and Jurkat also prepared)
T3 sequence (P46734 1-347): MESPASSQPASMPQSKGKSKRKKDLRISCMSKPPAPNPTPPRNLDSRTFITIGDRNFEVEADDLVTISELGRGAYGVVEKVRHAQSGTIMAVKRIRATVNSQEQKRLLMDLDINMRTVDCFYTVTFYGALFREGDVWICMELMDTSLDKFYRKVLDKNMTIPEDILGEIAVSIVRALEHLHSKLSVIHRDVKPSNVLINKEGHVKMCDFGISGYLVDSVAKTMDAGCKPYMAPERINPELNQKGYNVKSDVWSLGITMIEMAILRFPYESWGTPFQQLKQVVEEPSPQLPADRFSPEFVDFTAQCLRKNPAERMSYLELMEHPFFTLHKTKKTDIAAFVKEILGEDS
Summary of the method: as §1

| SMILES | R value (DMSO/fragment) for probe 1 labeling ([1]; P17858_K677) | R value (DMSO/fragment) for probe 1 labeling ([1]; P17858_K715) | R value (DMSO/fragment) for probe 1 labeling (EEF2 Elongation factor 2; P13639_K235) | R value (DMSO/fragment) for probe 1 labeling (EEF2 Elongation factor 2; P13639_K318) | R value (DMSO/fragment) for probe 1 labeling [2] | isoTOP-ABPP reactivity ratio at lysine P17858_K315 [1] | isoTOP-ABPP reactivity ratio at lysine P17858_K677 [1] | isoTOP-ABPP reactivity ratio at lysine P17858_K715 [1] | isoTOP-ABPP reactivity ratio at lysine P13639_K235 (EEF2 Elongation factor 2) | isoTOP-ABPP reactivity ratio at lysine P13639_K318 (EEF2 Elongation factor 2) | isoTOP-ABPP reactivity ratio at lysine P46734_K93 [2] | further results |
| --- | --- | --- | --- | --- | --- | --- | --- | --- | --- | --- | --- | --- |
| O=C(CCc1cn(-c2ccccc2)nc1-c1ccccc1)Oc1c(F)c(F)c(F)c(F)c1F [fragment 19, Pentafluorophenyl 3-(1,3-diphenyl-1H-pyrazol-4-yl)propanoate] | 1.2 | 1.6 | 1.2 | 1.1 | 0.9 | – | – | – | – | – | – | R value (DMSO/fragment) for probe 1 labeling ([1]; P17858_K315): 1.0 |
| O=C(Oc1c(F)c(F)c(F)c(F)c1F)C(c1ccccc1)c1ccccc1 [fragment 20, Pentafluorophenyl 2,2-diphenylacetate] | 18.8 | 1.3 | 1.1 | 1.1 | 0.9 | – | – | – | – | – | – | – |
| O=C(Oc1c(F)c(F)c(F)c(F)c1F)c1cc(C(F)(F)F)cc(C(F)(F)F)c1 [fragment 21, Pentafluorophenyl 3,5-bis(trifluoromethyl)benzoate] | 0.9 | 0.9 | 1.1 | 1.2 | 0.9 | – | – | – | – | – | – | – |
| Cn1cc(CC(=O)Oc2c(F)c(F)c(F)c(F)c2F)c2ccccc21 [fragment 22, Pentafluorophenyl 2-(1-methyl-1H-indol-3-yl)acetate] | 2.7 | 2.9 | 2.9 | 5.6 | 0.9 | – | – | – | – | – | – | – |
| COc1cc(CCC(=O)Oc2c(F)c(F)c(F)c(F)c2F)cc(OC)c1OC [fragment 23, Pentafluorophenyl 3-(3,4,5-trimethoxyphenyl)propanoate] | 1.8 | 0.6 | 1.6 | 1.6 | 0.9 | – | – | – | – | – | – | – |
| O=C(Oc1c(F)c(F)c(F)c(F)c1F)C1CCN(C(=O)OCc2ccccc2)CC1 [fragment 24, 1-Benzyl 4-(pentafluorophenyl) piperidine-1,4-dicarboxylate] | – | – | – | – | – | 0.9 | 3.3 | 0.9 | 1.1 | 1.2 | – | – |
| O=C(Oc1c(F)c(F)c(F)c(F)c1F)c1ccc2ccccc2n1 [fragment 25, Pentafluorophenyl quinoline-2-carboxylate] | – | – | – | – | – | 0.9 | 1.6 | 1.3 | 1.9 | 2.3 | – | – |
| O=C(CCc1coc2cc(F)ccc2c1=O)Oc1c(F)c(F)c(F)c(F)c1F [fragment 26, Pentafluorophenyl 3-(7-fluoro-4-oxo-4H-chromen-3-yl)propanoate] | – | – | – | – | – | – | 20.0 | 1.5 | 1.3 | 1.1 | 1.1 | – |
| O=C(CN1C(=O)c2ccccc2C1=O)Oc1c(F)c(F)c(F)c(F)c1F [fragment 27, Pentafluorophenyl 2-(1,3-dioxoisoindolin-2-yl)acetate] | – | – | – | – | – | – | 18.1 | 1.3 | 5.7 | – | – | – |
| CCn1cc(C(=O)Oc2c(F)c(F)c(F)c(F)c2F)c(=O)c2ccc(C)nc21 [fragment 28, Pentafluorophenyl 1-ethyl-7-methyl-4-oxo-1,4-dihydro-1,8-naphthyridine-3-carboxylate] | – | – | – | – | – | – | 1.1 | 1.5 | 1.4 | 1.6 | – | – |
| O=C(CCc1cn(-c2ccccc2)nc1-c1ccccc1)Oc1ccc([N+](=O)[O-])cc1[N+](=O)[O-] [fragment 29, 2,4-Dinitrophenyl 3-(1,3-diphenyl-1H-pyrazol-4-yl)propanoate] | – | – | – | – | – | 0.8 | 2.0 | 6.8 | 1.0 | 0.9 | 0.9 | – |
| O=C(Oc1ccc([N+](=O)[O-])cc1[N+](=O)[O-])C(c1ccccc1)c1ccccc1 [fragment 30, 2,4-Dinitrophenyl 2,2-diphenylacetate] | – | – | – | – | – | 4.9 | 20.0 | – | 1.4 | 1.4 | 1.4 | – |
| O=C(Oc1ccc([N+](=O)[O-])cc1[N+](=O)[O-])c1cc(C(F)(F)F)cc(C(F)(F)F)c1 [fragment 31, 2,4-Dinitrophenyl 3,5-bis(trifluoromethyl)benzoate] | – | – | – | – | – | – | 2.5 | 2.3 | 1.1 | 1.2 | 1.2 | – |
| Cn1cc(CC(=O)Oc2ccc([N+](=O)[O-])cc2[N+](=O)[O-])c2ccccc21 [fragment 32, 2,4-Dinitrophenyl 2-(1-methyl-1H-indol-3-yl)acetate] | – | – | – | – | – | 20.0 | 11.9 | 7.7 | 1.4 | 1.5 | 1.4 | – |
| COc1cc(CCC(=O)Oc2ccc([N+](=O)[O-])cc2[N+](=O)[O-])cc(OC)c1OC [fragment 33, 2,4-Dinitrophenyl 3-(3,4,5-trimethoxyphenyl)propanoate] | – | – | – | – | – | 0.8 | 2.0 | 1.1 | 1.0 | 0.9 | 0.9 | – |
| O=C(Oc1ccc([N+](=O)[O-])cc1[N+](=O)[O-])C1CCN(C(=O)OCc2ccccc2)CC1 [fragment 34, 1-Benzyl 4-(2,4-dinitrophenyl) piperidine-1,4-dicarboxylate] | – | – | – | – | – | – | – | – | – | – | – | isoTOP-ABPP ratio (R) at liganded lysine P17858_K677 ([1]; sol, 231): 2.8; isoTOP-ABPP ratio (R) at liganded lysine P17858_K715 ([1]; sol, 231): 1.3; isoTOP-ABPP ratio (R) at liganded lysine P13639_K235 (EEF2 Elongation factor 2; sol, 231): 1.0; isoTOP-ABPP ratio (R) at liganded lysine P46734_K93 ([2]; sol, 231): 0.8 |
